Measured values taken from US20240108598A1, “Danegaptide for Use in the Treatment or Prevention of a Kidney Disease” (CIANA THERAPEUTICS APS, priority 2021, published 2024).

Legend:
Cx43 hemichannels [1] = biological target: T1, Cx43 hemichannels (Homo sapiens, UniProt P17302); assay: Carboxyfluorescein dye uptake assay in HK2 cells; format: cell-based; settings: for carboxyfluorescein dye uptake, of control: 48 h
T1 construct: host or cells: HK2 human kidney proximal tubule epithelial cell line
Procedure: In panel A, HK2 cells were cultured in low glucose (5 mM) with/without TGFβ1 (10 ng/ml)±danegaptide (50, 100 and 1000 nM) for 48 h and cell viability assessed. Results are presented as mean±SEM, n=3. […] Addition of danegaptide (50 or 100 nM) reduced dye uptake, returning fluorescence intensity to control levels. Intensity is expressed as percentage compared to low glucose control and is representative of 3 separate experiments. Data is presented as mean±SEM, n=3 with key significances indicated (**P<0.01, ***P<0.001); one-way ANOVA and Tukey's post-test).
HK2 and HPTEC cells were seeded onto fluorodishes (22 mm diameter) and cultured in low glucose DMEM/F12 (5 mmol/1) for 48 h. Following an overnight serum-starvation, cells were incubated with TGFβ1 (10 ng/ml)±danegaptide (100 nM) for 48 h. For subsequent steps, a balanced salt solution (BSS, pH7.0) was used, comprising of NaCl (137 mM), KCl (5.4 mM), MgSO4 (0.8 mM), Na2HPO4 (0.3 mM), KH2PO4 (0.4 mM), NaHCO3 (4.2 mM), HEPES (10 mM) and glucose (5 mM). To induce dye uptake, cells were exposed to Ca^2+-free BSS (zero CaCl2+EGTA (1 mM)) plus carboxyfluorescein (200 μM) for 10 min, followed by a 10 min period in Ca^2+-containing BSS (1.3 mM) plus carboxyfluorescein (200 μM). Dishes were subsequently washed with Ca^2+-containing BSS (12 mls). Images were acquired with a Cool Snap HQ CCD camera (Roper Scientific) and Metamorph software (Universal Imaging Corp., Marlow, Bucks, UK). ImageJ was used to quantify dye uptake, where a region of interest (ROI) was drawn around each cell (approx. 10-15 cells/dish) and mean pixel intensity measured. A background fluorescence value was subtracted from each ROI.

Cx43 hemichannels [2] = biological target: T1, Cx43 hemichannels; assay: ATP biosensing (hemichannel mediated ATP release); format: cell-based; settings: for ATP release: hPTECs
Procedure: HK2 cells were cultured in low (5 mM) glucose with/without TGFβ1 (10 ng/ml)±danegaptide (50 or 100 nM) for 48 h. Representative biosensor traces show ATP release following removal of extracellular calcium. […] Peak responses were quantified by comparing against a known concentration of ATP (10 μM) and mean data±SEM plotted (E). Results are representative of 3 separate experiments (n=3; **P<0.01, […] ***P<0.001; one-way ANOVA and Tukey's post-test).
ATP biosensors (Sarissa Biomedical, Coventry UK) were used in a simultaneous dual-recording ampomeric setup as described previously (Price, G. W.; Chadjichristos, C. E.; Kavvadas, P.; Tang, S. C. W.; Yiu, W. H.; Green, C. R.; Potter, J. A.; Siamantouras, E.; Squires, P. E.; Hills, C. E. Blocking Connexin-43 mediated hemichannel activity protects against early tubular injury in experimental chronic kidney disease. Cell Commun. Signal. 2020, 18). A null biosensor was used to account for non-specific electro-active artefacts and subtracted from the ATP trace. Glycerol (2 mM) was included in all recording solutions to enable ATP detection. HK2 cells were seeded on glass coverslips (10 mm diameter) in low glucose DMEM/F12 (5 mmol/L) for 48 h, prior to an overnight serum-starvation. The cells were then incubated with TGFβ1 (10 ng/ml)±danegaptide (100 nM) for 48 h. The coverslips were transferred to a chamber containing Ca^2+-containing BSS perfused at 6 ml/min (37° C.) and left for 10 min to acclimatise. ATP and null biosensors were bent and lowered so that the electrode laid parallel to the cellular monolayer. Once a stable baseline occurred, perfusion of Ca^2+-free BSS stimulated hemichannel opening. After ATP release, Ca^2+-containing BSS was used to close hemichannels, followed by a calibration solution of ATP ([…]). Recordings were acquired at 4 Hz with a Micro CED (Mark2) interface using Spike (v8.03) software.

primary hPTECs = assay: Western blotting of adherens and tight junction proteins; format: cell-based, human; settings: 48 h
Procedure: Primary hPTECs were cultured in low (5 mM) glucose±TGFβ1 (10 ng/mL)±danegaptide (100 nM) for 48 h. Expression of E-cadherin (ECAD), N-cadherin (NCAD) and vimentin (panel A), and Claudin-2 and Zonula Occludens (ZO-1) and b-catenin (panel B) were assessed via western blotting. TGFβ1 reduced E-cadherin, Claudin-2 and ZO-1 expression and increased N-cadherin and vimentin expression (**P<0.01, ***P<0.001; mean±SEM, n=3). Effects were partially or completely reversed by danegaptide (100 nM; ▴P<0.05 and ▴▴▴P<0.001; mean±SEM, n=3). Representative blots for each protein are shown, with expression normalised by re-probing for α-tubulin as a loading control. In panel C, transepithelial electrical resistance (TER) assessed the consequence of altered adherens & tight-junction protein expression on epithelial integrity. HK2 cells were cultured in low (5 mM) glucose on transwell inserts and transepithelial resistance measured.
To determine if danegaptide can negate TGFβ1-mediated changes in adherens and tight junction proteins, hPTECs were incubated with TGFβ1 (10 ng/mL)±danegaptide (100 nM) for 48 h and expression of candidate proteins assessed by Western blotting. Preparation of cytosolic protein from HK2 and HPTEC cells, their separation by SDS-gel electrophoresis and transfer onto Immobilon-FI PVDF membranes have been described previously (Price, G. W.; Chadjichristos, C. E.; Kavvadas, P.; Tang, S. C. W.; Yiu, W. H.; Green, C. R.; Potter, J. A.; Siamantouras, E.; Squires, P. E.; Hills, C. E. Blocking Connexin-43 mediated hemichannel activity protects against early tubular injury in experimental chronic kidney disease. Cell Commun. Signal. 2020, 18). Membranes were blocked using Odyssey blocking buffer (LI-COR), then probed overnight with antibodies against E-cadherin (1:1000), N-cadherin (1:1000), claudin-2 (1:500) and ZO-1 (1:1000), Col I (1:1000), Col IV (1:2000), Fibronectin (1:4000), Laminin (1:500), ILK1 (1:500), beta-catenin (1:2000), Vimentin (1:500), MMP3 (1:500). Bands were visualised using an OdysseyFC and semi-quantified using ImageStudio (v5.2, LI-COR). Additionally, transepithelial electrical resistance (TER) was measured as a functional measure of epithelial cell-cell coupling and paracellular permeability.

[3] = TGFβ1 10 ng/mL + danegaptide 100 nM

T1 sequence (P17302 whole entry): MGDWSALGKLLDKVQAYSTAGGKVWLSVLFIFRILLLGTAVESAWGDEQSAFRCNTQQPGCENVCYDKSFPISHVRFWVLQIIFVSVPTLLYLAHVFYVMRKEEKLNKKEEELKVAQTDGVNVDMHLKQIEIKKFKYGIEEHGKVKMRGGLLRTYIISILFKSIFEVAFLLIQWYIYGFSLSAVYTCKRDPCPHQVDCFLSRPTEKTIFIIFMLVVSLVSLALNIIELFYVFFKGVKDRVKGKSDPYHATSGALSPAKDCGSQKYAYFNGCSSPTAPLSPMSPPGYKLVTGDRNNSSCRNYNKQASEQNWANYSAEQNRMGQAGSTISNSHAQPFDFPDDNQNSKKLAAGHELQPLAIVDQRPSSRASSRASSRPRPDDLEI

## NCC(=O)N1C[C@H](NC(=O)c2ccccc2)C[C@H]1C(=O)O [danegaptide, (2S,4R)-1-(2-aminoacetyl)-4-benzamidopyrrolidine2-carboxylic acid]
Cx43 hemichannels [1]; TGFβ1 10 ng/mL + danegaptide 50 nM
  carboxyfluorescein dye uptake, of control: 165.5±17.9%
Cx43 hemichannels [1]; [3]
  carboxyfluorescein dye uptake, of control: 147.6±18.1%
Cx43 hemichannels [1]; danegaptide alone
  carboxyfluorescein dye uptake: did not alter dye uptake
Cx43 hemichannels [1]; dose range 10 to 1000 nM tested
  concentration of optimal inhibition of carboxyfluorescein dye uptake: 50 to 100 nM
Cx43 hemichannels [2]; HK2 cells
  optimal concentration in the microenvironment (dose finding, dye uptake and ATP biosensing): 50 to 100 nM
Cx43 hemichannels [2]; TGFβ1 10 ng/mL + danegaptide 50 nM, 48 h
  ATP release: 1.90 ± 0.26 µM
Cx43 hemichannels [2]; TGFβ1 10 ng/mL + danegaptide 100 nM, 48 h
  ATP release: 0.79 ± 0.19 µM
Cx43 hemichannels [2]; danegaptide alone 50 nM
  ATP release: 0.35 ± 0.10 µM
Cx43 hemichannels [2]; danegaptide alone 100 nM
  ATP release: 0.31 ± 0.09 µM
Primary hPTECs; [3]
  Claudin-2 expression, of control: 74.6±5%
  E-cadherin (ECAD) expression, of control: 89±7.6%
  N-cadherin (NCAD) expression, of control: 161.9±27.4%
  ZO-1 expression, of control: 52.8±5.4%
  vimentin expression, of control: 147.3±8.8%
Primary hPTECs; TGFβ1+danegaptide 100 nM
  Beta-catenin expression, of control: 151.6±16.8%

## TGFβ1: Recombinant hTGFβ1 (Sigma); pro-fibrotic cytokine used to stimulate the cells [reference compound]
Cx43 hemichannels [1]; TGFβ1 10 ng/mL alone
  carboxyfluorescein dye uptake, of control: 354.9±32.6%
Cx43 hemichannels [2]; TGFβ1 10 ng/mL alone, 48 h, removal of extracellular calcium
  ATP release: 3.60 ± 0.29 µM
Primary hPTECs; TGFβ1 10 ng/mL alone
  Claudin-2 expression, of control: 44.5±5%
  E-cadherin (ECAD) expression, of control: 33.3±3.3%
  N-cadherin (NCAD) expression, of control: 224.4±29.6%
  ZO-1 expression, of control: 27.8±11.3%
  vimentin expression, of control: 212.9±13%
Primary hPTECs; TGFβ1 alone
  Beta-catenin expression, of control: 149.2±11.2%
